In PubChem BioAssay AID179 (DTP/NCI, 2004) one finds EC50, IC50 and outcome data, which are given here for 69 compounds.

pEC50, pIC50: −log10 of the molar value. Where “and” joins values, the source holds several entries; their conditions need not be identical. Equal values may be shown once. Calls of active or inactive are those of the source.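 How the source made its calls: active means compounds giving half or more protection of infected cells from virus-caused growth loss, again on retest; inactive means the rest.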 Where a SMILES comes first, the peptide text is derived from it. Side-chain parts run from the residue outwards. The star is where a group is joined. Cbz = O=C(OCc1ccccc1)*; Boc = CC(C)(C)OC(=O)* Bounds are passed on as bounds.

The test system of this assay is CEM cells HIV-1 protection, formazan growth assay. The experiment in a line: NCI AIDS Antiviral Assay. The following applies: for pIC50: measured here: growth of uninfected CEM cells. The method, boiled down:
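Steps: treat uninfected and HIV-1-infected human CEM cells at five drug levels; quantify growth by soluble formazan; retest any compound reaching 50% protection; classify actives from the retest.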

As usually defined, the pEC50 is the negative decadic logarithm of the EC50, by convention in mol/L. By pIC50 is commonly meant the negative decadic logarithm of the IC50, by convention in mol/L. A lower pIC50 goes with a large IC50. For `OC[P+](CO)(CO)C12CC3CC(CC(C3)C1)C2`, the pEC50 is less than 3.70 and the pIC50 was 4.38.

On to `O=C(O)C1=C(C(=O)O)C2CCC1C2`, for which the pEC50 was less than 3.70 and the negative logarithm of the IC50 (pIC50) was less than 3.70.

Consider `CS(=O)(=O)O[C@H]1CN2C[C@@H](O)[C@@H](O)[C@H]2[C@H]1CO`, for which the pEC50 is less than 3.70 and the pIC50 was less than 3.70.

`CCOC(=O)OC1(c2ccccc2)CCN(C)CC1`: the pEC50 was less than 3.70 and the negative-log IC50 (pIC50) was less than 3.70.

With `COc1ccc(COC(=O)NNC(=O)C2CSC(c3ccccc3)N2C(C)=O)cc1` (stereo not given), the pEC50 is less than 3.70 and the pIC50 is 3.76.

For the compound `CC[C@@]1(O)C(=O)OCc2c1cc1n(c2=O)Cc2cc3ccccc3nc2-1`, the pEC50 is less than 7.00 and the negative logarithm of the IC50 (pIC50) is 7.79.

Regarding `COc1cc(CC2Cc3cccc(=O)c(O)c3C(=O)O2)cc(OC)c1OC` (stereo not given), the pEC50 is less than 3.92 and the pIC50 is 4.76.

For `O=C(Nc1ccc(Cl)cc1C(F)(F)F)C(=O)Nn1c(=S)[nH]c2ccccc2c1=O`, the pEC50 is less than 3.82 and the pIC50 was less than 3.82.

In the case of `Clc1ccc(CNc2nc3ccccc3nc2-c2cccs2)c(Cl)c1`, the pEC50 was less than 5.01 and the negative-log IC50 (pIC50) is less than 5.01.

For the compound `COc1cc(OC)cc(-n2c(N)c(-c3nc4ccccc4n3C)c3ccc([N+](=O)[O-])cc3c2=O)c1`, the pEC50 was less than 3.70 and the pIC50 is less than 3.70.

As for `CC(C)CC(NC(=O)OCc1ccccc1)C(=O)NCCCCC(NC(=O)C(CCCCNC(=O)C(CC(C)C)NC(=O)OCc1ccccc1)NC(=O)C(CCCCNC(=O)C(CC(C)C)NC(=O)OCc1ccccc1)NC(=O)C(CCCCNC(=O)C(CC(C)C)NC(=O)OCc1ccccc1)NC(=O)OC(C)(C)C)C(=O)O` (stereo not given) (Boc-K([Leu-Cbz])K([Leu-Cbz])K([Leu-Cbz])K([Leu-Cbz])-OH; configuration not given here), the pEC50 is less than 4.00 and the negative-log IC50 (pIC50) is less than 4.00.

On to `CCCCCC(=O)OC1(C(C)=O)CCC2C3CCC4=CC(=O)CCC4C3CCC21C` (stereo not given), for which the pEC50 was less than 3.70 and the negative-log IC50 (pIC50) was 4.84.

Consider `O=C1O[C@@H](c2ccccc2)C[C@@H]1CN1CCOCC1`, for which the outcome was inactive.

In the case of `COC(=O)N(CCc1ccccc1)C(C)(C)C#N`, the pEC50 is less than 4.53 and the negative-log IC50 (pIC50) was less than 4.53.

In the case of `N=c1n(CC(=O)NC23CC4CC(CC(C4)C2)C3)c2ccccc2n1CC(=O)NC12CC3CC(CC(C3)C1)C2`, the pEC50 is less than 3.70 and the pIC50 was 5.43.

In the case of `COC(=O)N/N=C(\C)C(CN1CCCCC1)C(C1=C(O)c2ccccc2OC1)c1ccccc1` (stereo not given), the pEC50 was less than 4.14 and the pIC50 was 4.37.

`Cc1cccc2c(=O)c3cccc(CC(=O)O)c3oc12`: the pEC50 was less than 3.70 and the pIC50 is less than 3.70.

With `CSc1ccc(/C=C2\CNC/C(=C\c3ccc(SC)cc3)C2=O)cc1`, the pEC50 was less than 3.70 and the negative logarithm of the IC50 (pIC50) was 4.23.

As to `CN(Cc1nc2c(N)nc(N)nc2[nH]c1=O)c1ccc(C(=O)NC(CCC(=O)O)C(=O)O)cc1` (stereo not given), the pEC50 was less than 3.70; the negative logarithm of the IC50 (pIC50) was 4.97 and 5.09.

`O=C(c1ccccc1)N1CCN(C(=S)N(C(=O)c2ccccc2)c2ccccc2)C1=S`: the pEC50 was less than 3.70 and the pIC50 is 5.43.

In the case of `O=C(O)CCCCCCCCCc1ccccc1`, the pEC50 was less than 3.70 and the negative-log IC50 (pIC50) was 3.97.

In the case of `O=c1[nH][n+]([O-])cc2c(C(O)=C(O)O)c[nH]c12`, the outcome was inactive.

Take `Nc1c(Cl)cc(/C=C2\C=Cc3ccccc32)cc1Cl`: the pEC50 is less than 4.74 and the negative logarithm of the IC50 (pIC50) was less than 4.74.

As to `CCN(CC)CCOc1ccc(/C=C(\C#N)c2ccc(N(CC)CC)cc2)cc1`, the pEC50 was less than 3.70 and the negative-log IC50 (pIC50) was 6.05.

In the case of `CN(C)Cc1cc(O)c(CN(C)C)cc1O`, the pEC50 was less than 3.70 and the pIC50 was 5.03.

As for `C=C(C)C(=O)O[C@H]1CC2(CO)O[C@@H]2CC/C(COC(C)=O)=C/C2OC(=O)C(=C)[C@@H]21` (stereo not given in full), the pEC50 was less than 3.70 and the negative-log IC50 (pIC50) was 5.36.

Consider `CC1=Nc2ccccc2S/C1=C(/C)NNC(=O)C(N)=O`, for which the pEC50 was less than 4.05 and the negative-log IC50 (pIC50) is less than 4.05.

Regarding `Cc1cc(NS(=O)(=O)c2ccc(NO)cc2)no1`, the pEC50 was less than 4.15 and the negative-log IC50 (pIC50) was 4.80.

For the compound `O=S(O)CCCCSSCC(O)CO` (stereo not given), the pEC50 was less than 3.70 and the negative-log IC50 (pIC50) was 5.58.

Turning to `CC12CCCC(C(=O)O)(C1)[C@H](C(C)(C)C(=O)O)CC2` (stereo not given in full), the pEC50 is less than 3.70 and the pIC50 is less than 3.70.

On to `N#CCC(=O)N/N=C1/C(=O)N(c2cc(Cl)ccc2Cl)C(=O)C(=O)C1c1nc2ccccc2s1` (stereo not given), for which the outcome was inactive.

For the compound `CCC12C=CCN(CCc3c([nH]c4ccccc34)/C=C\1)C2` (stereo not given), the pEC50 is less than 3.53 and the pIC50 is less than 3.53.

Turning to `CC(=O)Nc1cc2cc(NC=C(C#N)C#N)ccc2oc1=O`, the pEC50 is less than 4.43 and the pIC50 was less than 4.43.

As for `COC(=O)CC12C=CC3(OO1)C(C)(C)CCCC3(C)O2` (stereo not given), the pEC50 is less than 3.70 and the pIC50 was 3.76.

With `CC(C)(C)OC(=O)NC(CCCCNC(=O)OCc1ccccc1)C(=O)NCCNc1ccc(NCCNC(=O)C(CCCCNC(=O)OCc2ccccc2)NC(=O)OC(C)(C)C)c2c1C(=O)c1ccccc1C2=O` (stereo not given), the pEC50 was less than 3.82 and the pIC50 is 5.07.

For `N#Cc1c2c(cn3c1nc1ccccc13)CCCCC2`, the pEC50 was less than 3.82 and the negative logarithm of the IC50 (pIC50) was less than 3.82.

Regarding `CCOC(=O)c1cnc(-n2[nH]c3c(c2=O)CCCC3)[nH]c1=O`, the pEC50 was less than 3.82 and the pIC50 was 4.53.

Turning to `CCOc1cc(C2SCC(=O)N2c2ccc(Oc3ccc(Cl)cc3)c(Cl)c2)ccc1O` (stereo not given), the pEC50 was less than 3.70 and the pIC50 is 4.56.

Consider `Cc1cn(CC2=NC3CCCCC3N2)c(=O)[nH]c1=O` (stereo not given), for which the pEC50 is less than 3.70 and the pIC50 was less than 3.70.

Turning to `CCOC(=O)c1[nH]c(Br)c(-c2ccc(OC)c(OC)c2)c1Br`, the pEC50 is less than 3.70 and the negative-log IC50 (pIC50) was 7.20.

`O=C1c2ccccc2C(=O)c2c1nc1sccn21`: the pEC50 was less than 3.70 and the pIC50 is 4.49.

As for `Cn1ccnc1.Cn1ccnc1.NCCN.[Cl-].[Pt+4]`, the pEC50 is less than 3.70 and the negative logarithm of the IC50 (pIC50) is less than 3.70.

Turning to `O=C(CCCNc1nc(-c2ccccc2)cs1)c1cccs1`, the pEC50 was less than 4.30 and the negative-log IC50 (pIC50) is less than 4.30.

On to `CCOC(=O)C(CCCCS(=O)(=O)O)C(=O)OCC`, for which the pEC50 was less than 3.70 and the negative-log IC50 (pIC50) is less than 3.70.

Regarding `COc1cc2c(cc1O)CC[n+]1cc3c(OC)c(OC)ccc3cc1-2`, the pEC50 is less than 3.74 and the pIC50 was less than 3.74.

In the case of `Nc1c(N=Nc2ccc(/C=C/c3ccc(N=Nc4cc(S(=O)(=O)O)c5ccccc5c4N)cc3S(=O)(=O)O)c(S(=O)(=O)O)c2)cc(S(=O)(=O)O)c2ccccc12`, the negative logarithm of the EC50 (pEC50) was 5.06 and the negative logarithm of the IC50 (pIC50) was 4.11.

On to `O=C1/C(=C/c2cccc([N+](=O)[O-])c2)CCc2ccccc21`, for which the pEC50 was less than 5.01 and the pIC50 was less than 5.01.

As to `C=C1CCC2C(C)(CO)C(O)CCC2(C)C1CC(O)C1=CCOC1=O` (stereo not given), the outcome was inactive.

For the compound `CC1(C)NC(=O)[C@]2(C[C@@H](OC(=O)c3ccccc3)C=C2C=O)O1`, the pEC50 was less than 3.70 and the pIC50 is 5.61.

As for `CCCCCCCC[N+](C)(C)Cc1ccc(C[N+](C)(C)CCCCCCCC)cc1`, the outcome was inactive.

As for `CN(C)CCCN1c2ccccc2Sc2ccc(Cl)cc21`, the pEC50 was less than 3.70 and the pIC50 is 4.99.

Turning to `COc1ccc2[nH]c(C(O)(Cc3cccnc3)Cc3cccnc3)cc2c1`, the pEC50 is 3.72 and the pIC50 is less than 3.70.

In the case of `CC[C@H](OCc1ccccc1)/C(C)=C/CC(C)/C=C(/C[C@]1(C)OC(=O)N2CCC[C@H]21)[Si](C)(C)C` (stereo not given in full), the pEC50 was less than 4.97 and the negative-log IC50 (pIC50) is less than 4.97.

With `COC1/C=C/OC2(C)Oc3c(C)c(O)c4c(O)c(c(/C=N/N5CCCCC5)c(O)c4c3C2=O)NC(=O)C(C)=C/C=C/C(C)C(O)C(C)C(O)C(C)C(OC(C)=O)C1C` (stereo not given), the pEC50 is less than 3.70 and the negative logarithm of the IC50 (pIC50) was 4.99.

In the case of `COc1ccc(N2C(=O)C3c4[nH]c5ccccc5c4C4CCC(c5ccccc5)CC4C3C2=O)cc1` (stereo not given), the pEC50 is less than 4.00 and the pIC50 is less than 4.00.

As for `CC(C)(C)NCc1c(C(=O)NCCO)[n+](=O)c2ccccc2n1[O-]`, the pEC50 is less than 4.12 and the pIC50 was less than 4.12.

Consider `O=C(Nc1ccc(Cl)c(Cl)c1)C(=O)C(C1OC(=O)c2ccccc21)[N+](=O)[O-]` (stereo not given), for which the pEC50 was less than 4.06 and the pIC50 was less than 4.06.

As for `CCC1(C)CC(=O)NC1=O` (stereo not given), the pEC50 is less than 4.43 and the pIC50 is less than 4.43.

Consider `COC(OC)c1c2c(O)c3c(O)c(C)c4c(c3c1O)C(=O)C(C)(O/C=C/C(OC)C(C)C(OC(C)=O)C(C)C(O)C(C)C(O)C(C)/C=C/C=C(/C)C(=O)N2)O4` (stereo not given), for which the pEC50 was less than 3.70 and the negative logarithm of the IC50 (pIC50) was 4.60.

With `COc1cc2ccc(CC#N)cc2cc1OC`, the outcome was inactive.

Turning to `S=C(c1c[nH]c2ccccc12)N1CCOCC1`, the pEC50 is less than 3.70 and the negative-log IC50 (pIC50) is less than 3.70.

Turning to `O=C(O)CN(c1ccccc1)S(=O)(=O)c1ccccc1[N+](=O)[O-]`, the result was inactive.

Turning to `CC(C)N1CCOC(c2ccc(O)c(O)c2)C1` (stereo not given), the pEC50 was less than 3.70 and the negative-log IC50 (pIC50) was 4.02.

With `COc1cc(C(=O)N2CCOCC2)cc(OC)c1OC`, the pEC50 is less than 3.70 and the pIC50 is less than 3.70.

`CCCCCCCCCCCCCCCCOCC(COP(=O)([O-])OCC[n+]1ccc(N(C)C)cc1)OCC` (stereo not given): the pEC50 was less than 3.70 and the negative-log IC50 (pIC50) was 4.18.

In the case of `COC(=O)C1c2c(c3ccccc3n2C(=O)OC)CCN2CCC1C(S(=O)(=O)c1ccccc1)C2=O` (stereo not given), the negative-log EC50 (pEC50) was 3.44 and the negative-log IC50 (pIC50) was 3.35.

Regarding `CC(Cl)c1nc2c(c(=O)[nH]1)C1CCCCCCCN1C(=S)N2C` (stereo not given), the pEC50 was less than 3.70 and the pIC50 is 4.91.

As for `C=C(CCCCOCOCCOC)c1ccccc1`, the result was inactive.

As for `C=CC[P+](c1ccccc1)(c1ccccc1)c1ccccc1`, the pEC50 was less than 4.70; the pIC50 is 6.25 and 6.37.
